{
  "source": "patent US11135186B2",
  "about": "“Regulators of the endoplasmic reticulum proteostasis network” (The Scripps Research Institute, priority 2015, dated 2021)",
  "key": {"[1]": {"test_system": "ERSE-FLuc reporter (ATF6 arm of the UPR)", "experiment": "ERSE-FLuc reporter, 96-well, HEK293T-Rex cells (SAR and S1P inhibition)", "assay_type": "cell-based", "settings": "HEK293T-Rex; 10 μM", "experimental": "HEK293T-Rex cells incorporating the ERSE-FLuc reporter and HEK293^DAX cells were plated approximately 20,000 cells/well in flat-bottomed, black 96-well assay plates (Costar, Corning, Inc.) overnight prior to compound administration. Cells were treated with compounds as described for 12-18 h then the plates were equilibrated to room temperature and 50 μL of SteadyLite (PerkinElmer) was added to each well. Luminescence activity was measured in a Safire II microplate reader with a 1000 ms integration time."}, "ATF6": {"test_system": "ATF6", "experiment": "Immunoblot of the 50 kDa ATF6 fragment", "assay_type": "cell-based", "settings": "immunoblotting", "experimental": "For immunoblotting, cells were lysed in 50 mM Tris buffer, pH 7.5 containing 0.1% TritonX (Fisher Scientific) and supplemented with protease inhibitor cocktail (Roche). For immunoblots of endogenous ATF6, cells were washed in PBS containing protease inhibitor cocktail and 10 μM MG-132 and subsequently lysated in 1× Laemmli buffer, supplemented in the same way, by repeating cycles of boiling and vortexing. Protein lysate concentrations were normalized by Bradford assays (Bio-Rad). Lysates or media were boiled for 10 min in Laemmli buffer+100 mM DTT before loading onto SDS-PAGE gel. Proteins were transferred from gel slabs to nitrocellulose, and the Odyssey Infrared Imaging System (Li-Cor Biosciences) was used to detect proteins of interest."}, "[2]": {"test_system": "ALLC (amyloidogenic light chain)", "experiment": "ALLC secretion from ALMC-2 cells after cycloheximide administration", "assay_type": "cell-based, human", "settings": "absence of new protein synthesis"}, "ALMC-2 cells": {"test_system": "ALMC-2 cells", "experiment": "ALMC-2 cell viability (CellTiter-Glo)", "assay_type": "cell-based, human", "settings": "10 μM", "experimental": "HepG2 cells were plated at 5,000 cells/well in a translucent, flat-bottomed 96 well plate, and treated for 48 hr with vehicle, 10 μM Tg or 10 μM ER proteostasis regulator. ALMC-2 or KAS-6/1 cells were plated at 33,000 cells/well in 96-well plates then treated with proteostasis regulators for 16 h as described. Cell metabolic activity was measured using the CellTiter-Glo assay (Promega), which reports on intracellular ATP concentration. CellTiter-Glo reagent was added to cell culture media at a 1:1 ratio and incubated for 2 minutes on an orbital shaker to induce cell lysis. The plate was then incubated at room temperature for 10 minutes to stabilize the luminescent signal and read on a Tecan F200 Pro microplate reader."}},
  "data": [
    {"smiles": "O=[N+]([O-])c1ccc(N/N=C/c2ccccc2O)cc1", "note": "[Compound 263]", "values": [
      {"measurement": "ERSE reporter activity relative to 263", "setting": "[1]", "value": "slightly increase"},
      {"measurement": "accumulation of the 50 kDa ATF6 fragment (S1P/S2P proteolysis)", "setting": "ATF6", "value": "increased accumulation"}
    ]},
    {"smiles": "Cc1ccc(O)c(NC(=O)CCc2ccccc2)c1", "note": "[Compound 147]", "values": [
      {"measurement": "reduction in ALLC secretion after cycloheximide", "setting": "[2]", "value": "~30", "unit": "%"},
      {"measurement": "cell viability (in words)", "setting": "ALMC-2 cells", "value": "do not significantly affect"}
    ]},
    {"smiles": "Cc1ccc(O)c(N/C=C/C(=O)c2ccc(F)cc2)c1", "note": "[Compound 132]", "values": [
      {"measurement": "accumulation of the 50 kDa ATF6 fragment (S1P/S2P proteolysis)", "setting": "ATF6", "value": "increased accumulation"},
      {"measurement": "reduction in cell viability", "setting": "ALMC-2 cells", "value": 45, "unit": "%"}
    ]}
  ]
}
